Source: patent publication US12582122B2, “Herbicidal compositions comprising clethodim” (BASF SE, priority 2024, dated 2026)

Test system: Digitaria insularis (DIGIN)
Assay: Post-emergence application in field trials, herbicidal activity (damage 0-100% vs untreated control)
Type: in vivo
Conditions: solo, post-emergence field trial, 21 DAT, 0.5% MSO; for % herbicidal activity A-1: 50 g ai/ha; for % herbicidal activity B: 240 g ai/ha
Description: In the examples below, using the method of S. R. Colby (1967) “Calculating synergistic and antagonistic responses of herbicide combinations”, Weeds 15, p. 22ff., the value E, which is expected if the activity of the individual active compounds is only additive, was calculated:
[formula] • where • X=percent activity using active herbicide A at an application rate a; • Y=percent activity using active herbicide B (e.g. clethodim) at an application rate b; • E=expected activity (in %) by A+B at application rates a+b.
If the value found experimentally is higher than the value E calculated according to Colby, a synergistic effect is present.
On field test sites, natural weed infestation or seeded weeds were treated post-emergence of the weeds.
In the field trials, the weeds were treated as indicated below.
In the following experiments, the herbicidal activity for the individual herbicidal compositions (solo and mixture applications) was assessed at the indicated days after treatment (DAT). The assessments for the damage on undesired weeds caused by the composition was carried out using a scale from 0 to 100%, compared to the untreated control plants. Here, 0 means no damage and 100 means complete destruction of the plants.
Herbicide A-1 and clethodim were, together with addition of 0.5% MSO (methylated sed oil) as adjuvant, formulated in water as distribution medium (water volume 200 l/ha) and sprayed with commercial flat fan nozzles.

Structure (SMILES) | % herbicidal activity A-1 (DIGIN height 5-15 cm) | % herbicidal activity A-1 (DIGIN height 60-80 cm) | % herbicidal activity B (DIGIN height 5-15 cm) | % herbicidal activity B (DIGIN height 60-80 cm)
CCOC(=O)COc1ccccc1Oc1nc(-n2c(=O)cc(C(F)(F)F)n(C)c2=O)c(F)cc1Cl [A-1, ethyl 2-[2-[[3-chloro-5-fluoro-6-[3-methyl-2,6-dioxo-4-(trifluoromethyl)pyrimidin-1-yl]-2-pyridyl]oxy]phenoxy]acetate] | 57% | 62% | – | –
CCSC(C)CC1CC(=O)C(/C(CC)=N/OC/C=C/Cl)=C(O)C1 (stereo not shown) [B, clethodim] | – | – | 68% | 57%
